Measured values from ChEMBL document CHEMBL1201862, “PubChem BioAssay data set” (2004).
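Cultured in 96-well plates, cells were exposed to test compound for 48 hours across five concentrations. The concentration for 50% growth inhibition is given as GI50.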 Calls of active or inactive are those of the source. Cut-off read from the data, not from the text of the source: active = GI50 up to about 1.1 µM and inactive = higher.

Experiments:
Assay in all cases: NCI tumour cell line growth inhibition, 48 h
SR = system: SR
UACC-257 = system: UACC-257
XF498 = system: XF498
NCI-H23 = system: NCI-H23
OVCAR-4 = system: OVCAR-4
ACHN = system: ACHN
M19-MEL = system: M19-MEL
KM12 = system: KM12
COLO 205 = system: COLO 205
K562 = system: K562
HOP-92 = system: HOP-92
CCRF-CEM = system: CCRF-CEM
HOP-62 = system: HOP-62
HL-60 = system: HL-60
SW-620 = system: SW-620
SK-MEL-2 = system: SK-MEL-2
SF-539 = system: SF-539
HCC 2998 = system: HCC 2998
HCT-15 = system: HCT-15
HCT-116 = system: HCT-116
RPMI-8226 = system: RPMI-8226
A549 = system: A549
IGROV-1 = system: IGROV-1
KM-20L2 = system: KM-20L2
EKVX = system: EKVX
SK-MEL-28 = system: SK-MEL-28
SNB-78 = system: SNB-78
TK-10 = system: TK-10
OVCAR-3 = system: OVCAR-3
CAKI-1 = system: CAKI-1
LXFL 529 = system: LXFL 529
786-0 = system: 786-0
SK-MEL-5 = system: SK-MEL-5
LOX IMVI = system: LOX IMVI
DMS-273 = system: DMS-273
HOP-18 = system: HOP-18
UO-31 = system: UO-31
NCI-H460 = system: NCI-H460
HT-29 = system: HT-29
UACC-62 = system: UACC-62
SK-OV-3 = system: SK-OV-3
SNB-75 = system: SNB-75
OVCAR-8 = system: OVCAR-8
Malme-3M = system: Malme-3M
SF-295 = system: SF-295
RXF 393 = system: RXF 393
SN12C = system: SN12C
M14 = system: M14
NCI-H226 = system: NCI-H226
NCI-H522 = system: NCI-H522
U-251 = system: U-251
DLD-1 = system: DLD-1
OVCAR-5 = system: OVCAR-5
SNB-19 = system: SNB-19
SF-268 = system: SF-268
DMS-114 = system: DMS-114
A498 = system: A498
MOLT-4 = system: MOLT-4

## Cc1ccc(C(=O)O/N=C2/CCCC/C2=C\c2ccccc2)cc1
SR
  GI50: > 100 µM (inactive)
UACC-257
  GI50: > 100 µM (inactive)
XF498
  GI50: 39.4 µM (inactive)
NCI-H23
  GI50: 29.4 µM (inactive)
OVCAR-4
  GI50: 36.9 µM (inactive)
ACHN
  GI50: 27.2 µM (inactive)
M19-MEL
  GI50: 67.9 µM (inactive)
KM12
  GI50: 73.6 µM (inactive)
COLO 205
  GI50: 95.3 µM (inactive)
K562
  GI50: 19.2 µM (inactive)
HOP-92
  GI50: 54.5 µM (inactive)
CCRF-CEM
  GI50: 29.2 µM (inactive)
HOP-62
  GI50: > 100 µM (inactive)
HL-60
  GI50: 19.7 µM (inactive)
SW-620
  GI50: 34 µM (inactive)
SK-MEL-2
  GI50: > 100 µM (inactive)
SF-539
  GI50: 45.1 µM (inactive)
HCC 2998
  GI50: > 100 µM (inactive)
HCT-15
  GI50: 32.4 µM
HCT-116
  GI50: 16.4 µM (inactive)
RPMI-8226
  GI50: 77.8 µM (inactive)
A549
  GI50: 19.5 µM (inactive)
IGROV-1
  GI50: 42.9 µM (inactive)
KM-20L2
  GI50: 83.9 µM (inactive)
EKVX
  GI50: > 100 µM (inactive)
SK-MEL-28
  GI50: 12.7 µM (inactive)
SNB-78
  GI50: 15.6 µM (inactive)
TK-10
  GI50: > 100 µM (inactive)
OVCAR-3
  GI50: 38.1 µM (inactive)
CAKI-1
  GI50: 63.2 µM (inactive)
LXFL 529
  GI50: 16.9 µM (inactive)
786-0
  GI50: > 100 µM (inactive)
SK-MEL-5
  GI50: 37.2 µM (inactive)
LOX IMVI
  GI50: 20.1 µM (inactive)
DMS-273
  GI50: 27.7 µM (inactive)
HOP-18
  GI50: > 100 µM (inactive)
UO-31
  GI50: 17.7 µM (inactive)
NCI-H460
  GI50: > 100 µM (inactive)
HT-29
  GI50: 43.5 µM (inactive)
UACC-62
  GI50: 41.5 µM (inactive)
SK-OV-3
  GI50: > 100 µM (inactive)
SNB-75
  GI50: 33.5 µM (inactive)
OVCAR-8
  GI50: 37.2 µM (inactive)
Malme-3M
  GI50: 14.4 µM (inactive)
SF-295
  GI50: 39.2 µM (inactive)
RXF 393
  GI50: 38.6 µM (inactive)
SN12C
  GI50: 80.9 µM (inactive)
M14
  GI50: > 100 µM (inactive)
NCI-H226
  GI50: > 100 µM (inactive)
NCI-H522
  GI50: 16.6 µM (inactive)
U-251
  GI50: 38.3 µM (inactive)
DLD-1
  GI50: 78.5 µM (inactive)
OVCAR-5
  GI50: 81.1 µM (inactive)
SNB-19
  GI50: > 100 µM (inactive)
SF-268
  GI50: 13.2 µM (inactive)

## COC(=O)c1ccccc1N(C(=O)c1ccccc1)c1ccccc1C
SR
  GI50: 28.2 µM (inactive)
UACC-257
  GI50: 39.2 µM (inactive)
XF498
  GI50: 22.7 µM (inactive)
NCI-H23
  GI50: 32.1 µM (inactive)
OVCAR-4
  GI50: 44.2 µM (inactive)
ACHN
  GI50: 53.6 µM (inactive)
M19-MEL
  GI50: 48.2 µM (inactive)
KM12
  GI50: 32.7 µM (inactive)
COLO 205
  GI50: 26 µM (inactive)
K562
  GI50: 41.1 µM (inactive)
CCRF-CEM
  GI50: 27.3 µM (inactive)
HOP-62
  GI50: > 100 µM (inactive)
HL-60
  GI50: 19.5 µM (inactive)
SW-620
  GI50: 59.8 µM (inactive)
SK-MEL-2
  GI50: 45 µM (inactive)
HCC 2998
  GI50: 60 µM (inactive)
HCT-15
  GI50: 38.5 µM
HCT-116
  GI50: 56.8 µM (inactive)
A549
  GI50: 61.9 µM (inactive)
IGROV-1
  GI50: 76.6 µM (inactive)
DMS-114
  GI50: 38.6 µM (inactive)
KM-20L2
  GI50: 73.8 µM (inactive)
EKVX
  GI50: 53.2 µM (inactive)
SK-MEL-28
  GI50: > 100 µM (inactive)
TK-10
  GI50: 41.6 µM (inactive)
OVCAR-3
  GI50: 34.6 µM (inactive)
CAKI-1
  GI50: 34.4 µM (inactive)
LXFL 529
  GI50: 85.5 µM (inactive)
786-0
  GI50: 50 µM (inactive)
SK-MEL-5
  GI50: 30.8 µM (inactive)
LOX IMVI
  GI50: 48.1 µM (inactive)
DMS-273
  GI50: 47.1 µM (inactive)
HOP-18
  GI50: 41.2 µM (inactive)
UO-31
  GI50: 24.8 µM (inactive)
NCI-H460
  GI50: 29.8 µM (inactive)
HT-29
  GI50: 39.4 µM (inactive)
UACC-62
  GI50: 93.8 µM (inactive)
SK-OV-3
  GI50: 24.3 µM (inactive)
SNB-75
  GI50: > 100 µM (inactive)
OVCAR-8
  GI50: 37.5 µM (inactive)
Malme-3M
  GI50: 36.3 µM (inactive)
SF-295
  GI50: 44.2 µM (inactive)
RXF 393
  GI50: 30.7 µM (inactive)
A498
  GI50: 27.5 µM (inactive)
SN12C
  GI50: > 100 µM (inactive)
MOLT-4
  GI50: 22.4 µM (inactive)
M14
  GI50: 24 µM (inactive)
NCI-H226
  GI50: 74.3 µM (inactive)
NCI-H522
  GI50: 30.7 µM (inactive)
U-251
  GI50: 48.2 µM (inactive)
DLD-1
  GI50: 43 µM (inactive)
OVCAR-5
  GI50: > 100 µM (inactive)
SNB-19
  GI50: > 100 µM (inactive)
SF-268
  GI50: > 100 µM (inactive)
